Where a name gives a salt, the structure may show the parent alone. Blank lines part the entries; values can stand above or below the compound they belong to.
Legend:
[1] = target: T1, GAA (Homo sapiens, UniProt P10253); test: rhGAA enzyme inactivation in whole blood at 37° C.; format: in vitro ADME; design: purchased Genzyme Corp; host or cells: Chinese hamster ovary cell line; conditions: for enzyme inactivated: whole blood 37° C., no 1-DNJ-HCl
Experimental: Aliquots were collected at 0, 2, 4, 8 and 24 hrs and centrifuged to obtain plasma. These plasma samples were then diluted in potassium acetate buffer (pH 4.0) and assayed for GAA activity using the 4-methylumbeliferyl-α-glucose (4-MUG) fluorogenic substrate. The measured GAA activity for individual samples at each time point was normalized to the 0 hr and expressed as % of initial activity. Data from 4 independent experiments were analyzed to obtain the mean (and standard deviation) and plotted versus time to assess the loss of enzyme activity over this time course.
Aliquots were collected at 0, 3 and 6 hrs and centrifuged to obtain plasma. These plasma samples were then diluted in potassium acetate buffer (pH 4.0) and assayed for GAA activity using the 4-methylumbeliferyl-α-glucose (4-MUG) fluorogenic substrate. The measured GAA activity for individual samples at each time point was normalized to the 0 hr and expressed as % of initial activity.
Moreover, since Myozyme® has a long plasma half-life (reported to be more than 3 hrs), there is a high probability that an appreciable amount of the enzyme remains in the circulation many hours after the infusion that would also be prone to inactivation.
Based on human plasma PK data, these concentrations are readily obtainable in the clinic.

[2] = target: T1, GAA; test: GAA levels in cell lines derived from late-onset Pompe patients; format: cell-based; design: endogenous in cells; conditions: cell lines with IVS 1 (−13 T>G) splicing mutation
[3] = target: T2, recombinant human GAA (Myozyme®) (Homo sapiens, UniProt P10253); test: SYPRO Orange thermal stability assay; format: binding
T2 construct: purchased Genzyme Corp; host or cells: Chinese hamster ovary cell line
Experimental: The thermal stability assay utilizes heat to induce protein denaturation, which is monitored using a SYPRO Orange dye that fluoresces upon binding to hydrophobic amino acids (which are not exposed in a folded protein).
Denaturation is monitored using a SYPRO Orange dye that fluoresces upon binding to hydrophobic amino acids (which are not exposed in a folded protein).
The thermal stability was performed at pH 7.4 for two formulations, which corresponds to the pH of the ER.

[4] = test system: GAA KO mice; test: Tissue glycogen reduction after repeat IV Myozyme® in GAA KO mice; format: in vivo, mouse; conditions: 20 mg/kg IV bolus, 4 administrations at two-week intervals, 14 days after last
Excerpt: (§1) Mice were euthanized 3 days after the last administration for tissue GAA activity measurement and 14 days after the administration for glycogen measurement. Data was compared with uptake (on day 3) and glycogen reduction (on day 14) of historical Lumizyme® IV alone study. Tissue samples included heart, diaphragm, tongue, ventral skin (non-injection site), skin from the hind limb injection site, skin from the shoulder SQ injection site, left and right limb muscles (biceps, triceps, quadriceps, soleus and gastrocnemius). GAA activities in tissues were determined using a 4-MUG fluorogenic substrate assay. Glycogen levels were determined using a glycogen assay (see Example 9 for method).

[5] = test system: GAA KO mice; test: Tissue glycogen reduction in GAA KO mice, Myozyme® IV with or without oral 1-DNJ-HCl (Example 9); format: in vivo, mouse
Experimental: Twelve-week old male GAA KO mice were administered a single dose of Myozyme® (40 mg/kg) via bolus tail vein injection every other week for 8 weeks. To prevent anaphylaxis, before the third and fourth Myozyme® injection, diphenhydramine (10 mg/kg intraperitoneally) was administered 10 min before Myozyme® injection. […] Mice were euthanized 14 days after the last Myozyme® administration.
Glycogen levels in heart, diaphragm, soleus, and quadriceps were then measured. […] Briefly, homogenates were prepared by homogenizing ˜50 mg tissue for 3-5 seconds on ice with a microhomogenizer in 200 μL deionized water. Supernatants were heat denatured (99° C. for 10 min) to remove endogenous amyloglucosidase activity. Denatured lysates (4 μL) were then analyzed in duplicate by addition of 36 μL water with and without 10 μL of 800 U/mL of amyloglucosidase (Sigma Aldrich, St. Louis, Mo.) and incubated for 1 hour at 50° C. The reaction was stopped by inactivation at 100° C. for 10 min. Finally, 200 μL of glucose reagent (Sigma) was added absorbance read at 340 nm on Spectramax. A standard curve ranging from 5 μg/mL to 400 μg/mL Type III rabbit liver glycogen (Sigma) was run each day for conversion of absorbance to absolute glycogen units. Simultaneously, the amount of protein was determined in tissue homogenates using the Micro BCA Protein Assay (Pierce, Rockford, Ill.) following the manufacturer's instructions. The glycogen content of each sample was normalized to protein, and data were finally expressed as micrograms of glycogen per milligram of protein (μg/mg protein).

[6] = test system: GAA KO mice; test: Tissue rhGAA activity after repeat IV Myozyme® in GAA KO mice; format: in vivo, mouse; conditions: 20 mg/kg IV bolus, 4 doses at 2 week intervals, 3 days after last dose
Excerpt: as §1
For both studies, the enzyme activities in tissues were assessed three days after the last (fourth) administration.

[7] = Aggregation of 25 mg/mL Myozyme® at pH 7.4 and 37° C. (Example 10); format: physicochemical; conditions: 1 mM DNJ, PBS pH 7.4, 4 weeks at 37° C.
Experimental: Aggregation was assessed after a 4 week incubation period.
A liquid formulation comprising DNJ and GAA was prepared by dissolving DNJ in water to achieve a concentration of 10 mM DNJ. GAA was reconstituted in 1.8 ml water, and dialyzed overnight in phosphate buffered-saline (pH 7.4). […] of DNJ (10 mM) was then be added to 400 microliters of GAA, such that the GAA was at a concentration of 25 mg/ml.
25 mg/mL Myozyme® was incubated with or without 1 mM DNJ in phosphate-buffered saline at pH 7.4. Aggregation of Myozyme® was assessed after incubation for 4 weeks at 37° C.

[8] = Circulating rhGAA after subcutaneous DNJ co-formulated with Myozyme® (FIG. 14); format: in vivo; conditions: DNJ co-formulated with 20 mg/kg Myozyme® vs Myozyme® without DNJ
[9] = rat, iv
Experimental: Four groups of rats were administered one of the following dosing regimens:
(2) 10 mg/kg of rhGAA+Water;

- loss of rhGAA activity ([1]; 2.5 μM 1-DNJ-HCl, whole blood, 6-hr time course): ~20%
- GAA thermostability (melting temperature) ([3]; Myozyme® plus 1, 10, 100 μM 1-DNJ-HCl): increases GAA thermostability
Compound: OC[C@H]1NC[C@H](O)[C@@H](O)[C@@H]1O [1-DNJ-HCl, 1-deoxynojirimycin hydrochloride]
- rhGAA activity in whole blood ([1]; 50 μM 1-DNJ-HCl, 37° C., up to 24 hrs): remained completely active throughout the study
- GAA levels [2]: increased GAA levels alone and in combination with hrGAA
- thermal stability of rhGAA (heat to denature) ([3]; 100 μM 1-DNJ-HCl, pH 7.4, vs formulation without ASSC): required significantly more heat to denature

Compound: Myozyme®: alglucosidase alfa, recombinant human acid α-glucosidase from Genzyme Corporation
- Glycogen reduction (% of untreated) ([4]; Biceps): 5%
- Glycogen reduction (% of untreated) ([4]; Diaphragm): 19%
- Glycogen reduction (% of untreated) ([4]; Gastrocnemius): 15%
- Glycogen reduction (% of untreated) ([4]; Heart): 51%
- Glycogen reduction (% of untreated) ([4]; Quadriceps): 8%
- Glycogen reduction (% of untreated) ([4]; Skin, 20 mg/kg): No reduction
- Glycogen reduction (% of untreated) ([4]; Skin, listed as rhGAA (Myozyme), 20 mg/kg): No
- Glycogen reduction (% of untreated) ([4]; Tongue): 54%
- Glycogen reduction (% of untreated) ([4]; Triceps): 4%
- Glycogen reduction relative to untreated mice ([5]; diaphragm, same regimen): 41±4%
- Glycogen reduction relative to untreated mice ([5]; heart, Myozyme® 40 mg/kg IV every other week for 8 weeks, +/- 30 mg/kg oral 1-DNJ-HCl): 93±1%
- Glycogen reduction relative to untreated mice ([5]; quadriceps, same regimen): 18±4%
- Glycogen reduction relative to untreated mice ([5]; soleus, same regimen): 69±3%
- rhGAA activity uptake ([6]; Biceps): 10.1 nmol/mg/h
- rhGAA activity uptake ([6]; Diaphragm): 7.1 nmol/mg/h
- rhGAA activity uptake ([6]; Gastrocnemius): 17.9 nmol/mg/h
- rhGAA activity uptake ([6]; Heart): 1.8 nmol/mg/h
- rhGAA activity uptake ([6]; Quadriceps): 6.9 nmol/mg/h
- rhGAA activity uptake ([6]; Skin): 27.1 nmol/mg/h
- rhGAA activity uptake ([6]; Soleus, 20 mg/kg): 8.0 nmol/mg/h
- rhGAA activity uptake ([6]; Soleus, listed as rhGAA (Myozyme), 20 mg/kg): 8 nmol/mg/h
- rhGAA activity uptake ([6]; Tongue): 12.4 nmol/mg/h
- rhGAA activity uptake ([6]; Triceps): 3.9 nmol/mg/h

- aggregation of Myozyme® [7]: reduced aggregation of Myozyme®
Compound: OC[C@H]1NC[C@H](O)[C@@H](O)[C@@H]1O [DNJ, 1-deoxynojirimycin]
- circulating levels of rhGAA [8]: increased the circulating levels of rhGAA

Compound: rhGAA: recombinant human acid α-glucosidase (e.g., Myozyme®)
- enzyme inactivated ([1]; by 4 hrs): approximately 40%
- enzyme inactivated ([1]; by 8 hrs): ~70%
- enzyme inactivated ([1]; by 24 hrs): ~100%
- in vivo half life of rhGAA [9]: 1.4 ± 0.2 h

— patent US9303249B2, “High concentration α-glucosidase compositions for the treatment of Pompe disease” (Amicus Therapeutics, Inc., priority 2012, dated 2016)
